# Assay results from patent US6291676A, “Water-soluble derivatives of camptothecin/homocamptothecin” (priority 2000, dated 2001).
# Experiment: Fluorescence emission spectra in solvents and vesicle suspensions
# Format: physicochemical
# Conditions: 37° C
# Experimental: FIG. 1 is the fluorescence emission spectra of 1 μM of 7-(1-Aminoethyl)camptothecin (7AEC) in various solvents and suspensions such as phosphate buffered saline, ethanol, and phosphate buffered saline containing small unilamellar vesicles (SUVs) composed either of dimyristoylphosphatidylcholine (DMPC) or dimyristoylphosphatidlyglycerol (DMPG). Experiments were conducted at 37° C. using exciting light of 370 nm.
# FIG. 2 is the fluorescence emission spectra of 4 μM of 7-[N-(4-methyl-1-piperazino) aminomethyl]-(20S)-camptothecin (CT-17) in various solvents and suspensions such as phosphate buffered saline, ethanol, and phosphate buffered saline containing small unilamellar vesicles (SUVs) composed either of DMPC or DMPG. Experiments were conducted at 37° C. using exciting light of 370 nm.
# Fluorescence Instrumentation. Steady-state fluorescence measurements were obtained on a SLM Model 9850 spectrofluorometer with a thermostated cuvette compartment. This instrument was interfaced with an IBM PS/2 model 55 SX computer. Excitation and emission spectra were recorded with an excitation resolution of 8 nm and an emission resolution of 4 nm. In all cases spectra were corrected for background fluorescence and scatter from unlabeled lipids or from solvents by subtraction of the spectrum of a blank. Steady-state fluorescence intensity measurements were made in the absence of polarizers. […]
smiles,measurement,setting,value
"CC[C@@]1(O)C(=O)OCc2c1cc1n(c2=O)Cc2c-1nc1ccccc1c2CNN1CCN(C)CC1 [CT-17, 7-[N-(4-methyl-1-piperazino)aminomethyl]-(20S)-camptothecin]",change of fluorescence emission upon introduction of lipid bilayers,PBS with lipid bilayers,increase in fluorescence intensity
same,shift of the fluorescence emission spectra in the presence of liposomes,"liposomes of DMPC or DMPG, λex 370 nm",shifts to shorter wavelength
